Source: patent US9499509B2, “Dihydrochalcone derivatives and their use as antibiotic agents” (UNIVERSITÉ DU QUÉBEC À CHICOUTIMI, priority 2012, dated 2016)
Converted amounts (≈) assume the structure as drawn. Where two headings read alike, the source gives them in different places.

Key:
[1] = tested on: Streptococcus agalactiae; assay: Antibiotic assay (resazurin, Example 1), Streptococcus agalactiae; assay type: cell-based; conditions: for IC50: read-out: IC50
Protocol: (§1) Bacteria Strain. […] The MRSA were obtained as further described below.
(§2) Antibiotic agents. Cyprofloxacin and erythromycin were provided by Sigma-Aldrich. Gentamicin sulfate and vancomycin hydrochloride were provided by Calbiochem.
(§3) Five additional strains were tested: Streptococcus pneumoniae, Streptococcus agalactiae, Streptococcus pyogenes, Enterococcus faecalis and Corynebacterium jeikeium.

[2] = tested on: S. epidermidis; assay: Antibiotic assay (resazurin, Example 1), S. epidermidis strains; conditions: Staphylococcus epidermidis
[3] = tested on: Enterococcus faecalis; assay: Antibiotic assay (resazurin, Example 1), Enterococcus faecalis; assay type: cell-based; conditions: for IC50: read-out: IC50
Protocol: as §1, §2, §3

[4] = tested on: Streptococcus pyogenes; assay: Antibiotic assay (resazurin, Example 1), Streptococcus pyogenes; assay type: cell-based; conditions: Streptococcus pyogenes; for IC50: read-out: IC50; for MIC: read-out: Minimum Inhibitory Concentration (MIC)
Protocol: as §1, §2, §3

[5] = tested on: methicillin-resistant Staphylococcus aureus (MRSA) strains; assay: Antibiotic assay (resazurin, Example 1), MRSA strains; assay type: cell-based
From the text: as §1, §2
Isolation and identification of methicillin-resistant Staphylococcus aureus (MRSA) strains. From March 2007 to March 2008, 35 screening swabs from nares (n=31), throat (n=3), Groin pus (n=1) were obtained from patients hospitalized at Chicoutimi hospital. Identification of S. aureus was performed using the Slidex Staph-Kit (bioMerieux Vitek, Inc., Hazelwood, Mo.) according to the manufacturer's instructions. Quality control was performed with MRSA strain ATCC 43300 and S. aureus strain ATCC 25923. In addition, S. aureus profile was determined with API Staph test strip with bacterial suspension of saline McFarland of 0.5 (bioMerieux, Durham, N.C.) according to the manufacturer's protocol. API Staph strips were held for 24 h before the results were read. A latex agglutination (SLIDEX) test detecting methicilin resistance in Staphylococci based on the production of low-affinity PBP2a, which is encoded by the mecA gene was performed on all strains. An antibiogram was also performed to confirm the identification of MRSA strains using disk diffusion test.
Antibiotic susceptibility testing using disk diffusion method. The antimicrobial activity of different classes of antibiotics of the potential MRSA was determined by diffusion method (Kirby-Bauer) as described by NCCLS. The antibiotics tested included: penicillin (10 units), amoxicillin/clavulanic acid (20/10 μg), ciprofloxacin (5 μg), moxifloxacin (5 μg), levofloxacin (5 μg), clindamycin (15 μg), erythromycin (15 μg), cefoxitin (30 μg), linezolid (30 μg), trimethoprim/sulfomethoxazole (1.25/23.75 μg), rifampicin (5 μg), gentamicin (10 μg) and vancomycin (30 μg). The agar medium had pH 7.2 to 7.4 before inoculing potentiel MRSA. The antibiotics were maintained at 8° C. or lower −14° C. according to manufacturer's recommendations. The pure culture was inoculated on a non-selective plate for 18-24 h. Each colony was collected with a wire loop and transfered the growth to a tube containing 4 to 5 mL of a tryptic-soy broth. The inoculum density was standarized with BaSO4 using 0.5 McFarland standard. All strains were incubated at 37° C. until it achieves or exceeds the turbidity of 0.5 McFarland standard. Inoculation of the dried surface (Muller-Hinton agar plate) by streaking the swab over the entire sterile agar surface. This procedure was repeated two more times. After 15 min, the appropriate disk were applied on the surface with a sterile forceps. The inverted plates was placed in a incubator at 37° C./air/16 to 18 h or 24 h for vancomycin. The inhibition zones were measured with a millimetric ruler. Interpretation of zone sizes by references of the manufacturer. Quality control organisms used were ATCC strains number 25923.
(§4) MRSA. Ten (10) strains of MRSA obtained as described above were tested along with an S. aureus wild type (WT) strain (ATCC25923).

[6] = tested on: Corynebacterium jeikeium; assay: Antibiotic assay (resazurin, Example 1), Corynebacterium jeikeium; assay type: cell-based; conditions: Corynebacterium jeikeium, Coryne. jeikeium 14139
Protocol: as §1, §2, §3

[7] = tested on: S. aureus wild type strain (ATCC 25923); assay: Antibiotic assay (resazurin, Example 1), S. aureus wild type; assay type: cell-based, Staphylococcus aureus; conditions: Staphylococcus aureus, ATCC25923, S. aureus WT ATCC 25923
Protocol: as §1, §2, §4

[8] = tested on: Streptococcus pneumoniae; assay: Antibiotic assay (resazurin, Example 1), Streptococcus pneumoniae; assay type: cell-based; conditions: for IC50 / MIC: Streptococcus pneumoniae; for IC50: read-out: IC50; for MIC: read-out: Minimum Inhibitory Concentration (MIC)
Protocol: as §1, §2, §3

[9] = read-out: Minimum Inhibitory Concentration (MIC)

## O=C(O)c1cn(C2CC2)c2cc(N3CCNCC3)c(F)cc2c1=O [Ciprofloxacin, reference compound]
[1]; Strep. agalactiae 14151
  Minimum Inhibitory Concentration (MIC): (>200) μM
[1]; Strep. agalactiae 14153
  Minimum Inhibitory Concentration (MIC): (>200) μM
[1]; Streptococcus agalactiae, Strep. agalactiae 14150
  IC50: 138 ± 10 µM
[1]; Streptococcus agalactiae, Strep. agalactiae 14150, read-out: Minimum Inhibitory Concentration (MIC)
  MIC: > 200 µM
[1]; Streptococcus agalactiae, Strep. agalactiae 14151
  IC50: > 200 µM
[1]; Streptococcus agalactiae, Strep. agalactiae 14153
  IC50: 190 ± 10 µM
[2]; S. epidermidis 14069
  IC50: 31 ± 2 µM
[2]; S. epidermidis 14085
  IC50: 26.3 ± 0.8 µM
[2]; S. epidermidis 14093
  IC50: < 1.56 µM
[2]; S. epidermidis 14134
  IC50: 44 ± 1 µM
[2]; S. epidermidis 14143
  IC50: 80 ± 7 µM
[2]; read-out: Minimum Inhibitory Concentration (MIC), S. epidermidis 14069
  MIC: > 200 µM
[2]; read-out: Minimum Inhibitory Concentration (MIC), S. epidermidis 14085
  MIC: > 200 µM
[2]; read-out: Minimum Inhibitory Concentration (MIC), S. epidermidis 14093
  MIC: 77.1 µM (≈ 25.5 µg/mL)
[2]; read-out: Minimum Inhibitory Concentration (MIC), S. epidermidis 14134
  MIC: > 200 µM
[2]; read-out: Minimum Inhibitory Concentration (MIC), S. epidermidis 14143
  MIC: > 200 µM
[3]; Ent. Faecalis 14115
  Minimum Inhibitory Concentration (MIC): (>200) μM
[3]; Enterococcus faecalis, Ent. Faecalis 14078
  IC50: 15 ± 2 µM
[3]; Enterococcus faecalis, Ent. Faecalis 14078, read-out: Minimum Inhibitory Concentration (MIC)
  MIC: > 200 µM
[3]; Enterococcus faecalis, Ent. Faecalis 14115
  IC50: > 200 µM
[3]; in words
  activity against Enterococcus faecalis 14115 strain: not active
[4]; Strep. pyogenes 14149
  IC50: 43 ± 2 µM
  MIC: 169 µM (≈ 56 µg/mL)
[4]; Strep. pyogenes 14152
  IC50: 0.6 ± 1 µM
  MIC: 37.4 µM (≈ 12.4 µg/mL)
[5]; MRSA 1
  Minimum Inhibitory Concentration (MIC): (>186) μM
[5]; MRSA 3
  Minimum Inhibitory Concentration (MIC): (>186) μM
[5]; MRSA 4
  Minimum Inhibitory Concentration (MIC): (>186) μM
[5]; MRSA 5
  Minimum Inhibitory Concentration (MIC): (>186) μM
[5]; MRSA 6
  Minimum Inhibitory Concentration (MIC): (>186) μM
[5]; MRSA 7
  Minimum Inhibitory Concentration (MIC): (>186) μM
[5]; MRSA 8
  Minimum Inhibitory Concentration (MIC): (>186) μM
[5]; MRSA 9
  Minimum Inhibitory Concentration (MIC): (>186) μM
[5]; MRSA 10
  Minimum Inhibitory Concentration (MIC): (>186) μM
[5]; Staphylococcus aureus, MRSA, MRSA1, read-out: IC50
  IC50: 102 ± 6 µM
[5]; Staphylococcus aureus, MRSA, MRSA2, read-out: IC50
  IC50: 156 ± 11 µM
[5]; Staphylococcus aureus, MRSA, MRSA2, read-out: Minimum Inhibitory Concentration (MIC)
  MIC: > 186 µM
[5]; Staphylococcus aureus, MRSA, MRSA3, read-out: IC50
  IC50: > 186 µM
[5]; Staphylococcus aureus, MRSA, MRSA4, read-out: IC50
  IC50: 134 ± 7 µM
[5]; Staphylococcus aureus, MRSA, MRSA5, read-out: IC50
  IC50: 109 ± 4 µM
[5]; Staphylococcus aureus, MRSA, MRSA6, read-out: IC50
  IC50: 131 ± 9 µM
[5]; Staphylococcus aureus, MRSA, MRSA7, read-out: IC50
  IC50: 128 ± 9 µM
[5]; Staphylococcus aureus, MRSA, MRSA8, read-out: IC50
  IC50: 119 ± 9 µM
[5]; Staphylococcus aureus, MRSA, MRSA9, read-out: IC50
  IC50: 106 ± 11 µM
[5]; Staphylococcus aureus, MRSA, MRSA10, read-out: IC50
  IC50: 122 ± 16 µM
[5]; Staphylococcus aureus, MRSA, all MRSA strains, read-out: IC50 values against the MRSA strains
  IC50: 100 to 150 µM
[6]; read-out: IC50
  IC50: 1.42 ± 0.07 µM
[6]; [9]
  MIC: 16.4 µM (≈ 5.43 µg/mL)
[7]; read-out: IC50
  IC50: 0.4 ± 0.2 µM
[7]; [9]
  MIC: 47.9 µM (≈ 15.9 µg/mL)
[8]; Strep. pneumoniae 14070
  IC50: > 200 µM
  MIC: > 200 µM
[8]; Strep. pneumoniae 14112
  IC50: 63 ± 6 µM
  MIC: 200 µM (≈ 66.3 µg/mL)
[8]; Strep. pneumoniae 14138
  IC50: > 200 µM
  MIC: > 200 µM
[8]; Strep. pneumoniae 14144
  IC50: > 200 µM
  MIC: > 200 µM
[8]; Strep. pneumoniae 14148
  IC50: 56 ± 6 µM
  MIC: 200 µM (≈ 66.3 µg/mL)
[8]; in words
  activity against Streptococcus pneumoniae strain 14144: not active
